Data from publication PMC3914206.

What was measured:
panel of 442 kinases [1] = target: T1, panel of 442 kinases (Homo sapiens, UniProt Q9BX84); format: binding; settings: kinase TRPM6; compound concentration 10 µM
T1 construct: purchased KINOMEscan
From the text: (§1) We assessed the selectivity of members of this scaffold using the KINOMEscan methodology across a near comprehensive panel of 442 kinases [[18,27]].

panel of 442 kinases [2] = target: T2, panel of 442 kinases (Homo sapiens, UniProt Q9NRM7); format: binding; settings: Compound Concentration 10 µM
T2 construct: purchased KINOMEscan
T2 sequence (Q9NRM7 1-1088): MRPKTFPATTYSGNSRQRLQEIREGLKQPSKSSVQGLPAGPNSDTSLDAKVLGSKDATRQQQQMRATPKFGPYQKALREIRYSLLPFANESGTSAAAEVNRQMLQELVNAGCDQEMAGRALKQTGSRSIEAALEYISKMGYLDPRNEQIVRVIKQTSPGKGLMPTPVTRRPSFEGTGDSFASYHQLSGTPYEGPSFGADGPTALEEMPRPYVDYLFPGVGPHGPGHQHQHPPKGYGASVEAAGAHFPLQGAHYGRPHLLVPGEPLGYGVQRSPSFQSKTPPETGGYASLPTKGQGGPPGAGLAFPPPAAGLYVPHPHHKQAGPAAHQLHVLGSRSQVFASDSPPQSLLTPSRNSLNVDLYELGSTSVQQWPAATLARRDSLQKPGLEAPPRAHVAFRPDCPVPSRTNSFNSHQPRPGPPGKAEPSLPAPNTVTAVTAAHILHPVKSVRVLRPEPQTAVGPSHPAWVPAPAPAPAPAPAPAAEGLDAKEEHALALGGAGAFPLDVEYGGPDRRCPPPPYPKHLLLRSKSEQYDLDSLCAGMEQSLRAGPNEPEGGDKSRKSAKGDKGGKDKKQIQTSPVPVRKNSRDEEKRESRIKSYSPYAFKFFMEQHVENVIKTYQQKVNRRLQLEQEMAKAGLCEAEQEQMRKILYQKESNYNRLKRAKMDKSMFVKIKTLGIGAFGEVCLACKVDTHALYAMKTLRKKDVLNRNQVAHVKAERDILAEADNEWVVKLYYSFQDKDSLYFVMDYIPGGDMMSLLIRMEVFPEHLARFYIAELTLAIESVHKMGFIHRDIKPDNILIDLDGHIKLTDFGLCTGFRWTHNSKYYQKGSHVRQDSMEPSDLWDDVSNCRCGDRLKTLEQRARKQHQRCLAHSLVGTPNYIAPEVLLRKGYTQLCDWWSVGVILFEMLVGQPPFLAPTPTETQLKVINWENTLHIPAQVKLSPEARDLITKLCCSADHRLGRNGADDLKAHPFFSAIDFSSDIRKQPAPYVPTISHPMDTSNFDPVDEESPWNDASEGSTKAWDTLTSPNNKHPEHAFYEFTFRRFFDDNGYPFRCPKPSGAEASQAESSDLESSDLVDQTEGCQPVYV
From the text: as §1

T1 sequence (Q9BX84 whole entry): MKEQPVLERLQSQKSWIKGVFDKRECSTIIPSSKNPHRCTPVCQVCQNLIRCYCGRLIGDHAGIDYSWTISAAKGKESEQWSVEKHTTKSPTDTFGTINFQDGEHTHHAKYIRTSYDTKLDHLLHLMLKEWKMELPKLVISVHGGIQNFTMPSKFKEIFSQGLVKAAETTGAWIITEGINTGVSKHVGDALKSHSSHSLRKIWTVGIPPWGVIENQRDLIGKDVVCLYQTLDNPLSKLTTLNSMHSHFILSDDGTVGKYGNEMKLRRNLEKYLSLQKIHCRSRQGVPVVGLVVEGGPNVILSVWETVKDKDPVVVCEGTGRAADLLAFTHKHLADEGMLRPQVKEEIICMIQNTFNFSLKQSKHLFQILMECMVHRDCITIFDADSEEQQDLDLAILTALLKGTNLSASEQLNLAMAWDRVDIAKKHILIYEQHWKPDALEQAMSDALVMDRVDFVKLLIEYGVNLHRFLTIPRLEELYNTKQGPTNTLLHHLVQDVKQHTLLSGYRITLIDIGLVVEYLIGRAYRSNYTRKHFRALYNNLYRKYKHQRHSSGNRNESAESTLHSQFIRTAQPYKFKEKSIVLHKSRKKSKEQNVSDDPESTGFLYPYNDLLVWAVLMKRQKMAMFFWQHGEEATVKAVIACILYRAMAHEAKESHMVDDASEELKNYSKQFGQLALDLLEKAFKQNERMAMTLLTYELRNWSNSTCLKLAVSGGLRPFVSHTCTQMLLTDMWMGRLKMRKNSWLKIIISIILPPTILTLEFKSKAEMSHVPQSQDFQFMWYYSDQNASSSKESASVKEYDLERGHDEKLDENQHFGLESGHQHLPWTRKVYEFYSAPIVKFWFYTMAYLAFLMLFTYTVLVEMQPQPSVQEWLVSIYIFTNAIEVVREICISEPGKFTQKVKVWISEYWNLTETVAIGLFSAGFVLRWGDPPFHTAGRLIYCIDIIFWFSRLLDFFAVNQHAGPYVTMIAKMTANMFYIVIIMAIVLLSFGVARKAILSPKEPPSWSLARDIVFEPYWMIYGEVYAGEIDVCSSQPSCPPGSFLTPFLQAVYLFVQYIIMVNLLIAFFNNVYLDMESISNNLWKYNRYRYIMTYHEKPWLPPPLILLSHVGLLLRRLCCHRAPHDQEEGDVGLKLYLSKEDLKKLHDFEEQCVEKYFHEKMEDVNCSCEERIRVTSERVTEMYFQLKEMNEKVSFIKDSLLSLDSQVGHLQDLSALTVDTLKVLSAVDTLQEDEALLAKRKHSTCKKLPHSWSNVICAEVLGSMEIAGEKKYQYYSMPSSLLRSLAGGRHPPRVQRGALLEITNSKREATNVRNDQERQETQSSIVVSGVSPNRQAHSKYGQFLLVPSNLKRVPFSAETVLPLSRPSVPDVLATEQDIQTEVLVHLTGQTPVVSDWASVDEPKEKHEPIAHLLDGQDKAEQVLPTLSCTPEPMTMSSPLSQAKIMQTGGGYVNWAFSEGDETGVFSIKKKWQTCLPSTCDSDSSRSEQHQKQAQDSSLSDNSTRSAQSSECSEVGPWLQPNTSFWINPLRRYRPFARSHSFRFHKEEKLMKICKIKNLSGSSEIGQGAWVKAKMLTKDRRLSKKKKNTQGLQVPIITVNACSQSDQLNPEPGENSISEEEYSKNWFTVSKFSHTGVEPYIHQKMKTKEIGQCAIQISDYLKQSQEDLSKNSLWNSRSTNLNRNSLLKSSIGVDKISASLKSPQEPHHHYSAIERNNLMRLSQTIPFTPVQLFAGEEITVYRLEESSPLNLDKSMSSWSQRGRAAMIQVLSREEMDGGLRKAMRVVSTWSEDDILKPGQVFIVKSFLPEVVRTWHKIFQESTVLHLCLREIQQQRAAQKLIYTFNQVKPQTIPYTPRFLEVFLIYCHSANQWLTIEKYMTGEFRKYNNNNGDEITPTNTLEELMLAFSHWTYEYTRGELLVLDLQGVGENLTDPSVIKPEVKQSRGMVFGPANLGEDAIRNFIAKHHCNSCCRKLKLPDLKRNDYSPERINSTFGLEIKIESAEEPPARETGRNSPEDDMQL

SMILES | % Ctrl, TRPM6 (panel of 442 kinases [1]) [% Ctrl] | KINOMEscan: LATS2 (panel of 442 kinases [2])
COc1cc(C(=O)N2CCC(N3CCN(C)CC3)CC2)ccc1Nc1ncc2c(n1)N(C)c1ccccc1C(=O)N2C [15 (LRRK2-IN-1)] | 100 | 95
COc1cc(C(=O)N2CCC(N3CCN(C)CC3)CC2)ccc1Nc1ncc2c(n1)N1CCc3cccc(c31)C(=O)N2C [Compound 24] | 100 | –
COc1cc(C(=O)N2CCC(N3CCN(C)CC3)CC2)ccc1Nc1ncc2c(n1)N(C1CCCC1)c1ccccc1C(=O)N2C [Compound 25, 11-cyclopentyl-2-((2-methoxy-4-(4-(4-methylpiperazin-1-yl)piperidine-1-carbonyl)phenyl)amino)-5-methyl-5H-benzo[e]pyrimido[5,4-b][1,4]diazepin-6(11H)-one] | 100 | 92
CCOc1cc(C(=O)N2CCC(N3CCN(C)CC3)CC2)ccc1Nc1ncc2c(n1)N(C1CCCC1)c1ccccc1C(=O)N2C [Compound 26] | 94 | 93
